In patent publication US4921960A, “Quinoline thioethers” (priority 1987, dated 1990):

Columns and labels:
benzodiazepine receptors = assay: In vitro binding, 3H-Diazepam displacement on rat brain membrane preparation; conditions: 2 nM 3H-Diazepam, rat cortex membranes; for Displacement of 3H-Diazepam from its receptor: 1 hr at 0-4 °C; for IC50 value: both drugs compared
Method: The in vitro binding of compound A in comparison to that of chlordiazepoxide was measured on rat brain membrane preparation. Male CFY rat cortex was homogenized in 0.32M sucrose using glass homogenizer with teflon pestle. Nucleus was spun down at 1000 g for 15 min. The supernatant was centrifuged at 40,000 g for 15 min. The pellet was homogenized in 5 mM TRIS-citrate buffer pH 7.1 by a Polytron P10 and it was lyzed for 15 min. at 0° C. After centrifugation at 40,000 g for 15 min. the pellet was taken up in 50 mM TRIS-citrate buffer pH 7.1 and kept overnight at -20° C. After thawing and centrifugation (40,000 g for 15 min.) the pellet was washed in 50 mM TRIS-citrate buffer pH 7.1 three times by centrifugation. The final pellet was taken up in the same buffer in 1:30 volume. Ligand: 2 nM ^3 H-Diazepam (sp. act. 86 Ci/mmol).
Incubation: 1 hr at 0°-4° C. in 50 mM TRIS-citrate buffer ph 7.1
Final protein concentration: ca. 0.5 mg/ml.
The binding was stopped by dilution with cold buffer and rapid filtration on GF/B Whatman filter paper.
For the displacement we used six different concentrations of drugs, run with 3 parallels. Experiments were repeated two times. Compound A was dissolved in cc. acetic acid and distilled water then the 10^-3 M solution was further diluted with incubation buffer. Blank solution was prepared in the same way without containing the drug. Chlordiazepoxide was dissolved in the incubation buffer.

Male CFY rats = assay: "Conflict" test: water consumption of food-deprived rats without punishment and in punished situation (anti-anxiety versus sedative effect); type: in vivo, rat; conditions: for Sedative dose (numerator of ratio): as printed in b54 without unit, see Tables I and III; for Water consumption (ml) punished situation / Water consumption (ml) without punishment: 30 min prior; for Ratio between the sedative and anxiolytic dose: Tables I and III; for Anxiolytic effect in presence of RO-15-1788 (selective benzodiazepine receptor antagonist): Tables II and IV
Method: The essential strategy for measuring the anti-anxiety effecct of a drug is to check its activity in a conflict situation. We elicit a rewarded response, then suppress that response by punishing it when it occurs and the anti-anxiety effect is measured by the drug-induced increase in punished responding, whereas the sedative effect is measured by the drug-induced decrease of unpunished responding.
This means that when we circuit the drinking tube and the grid floor of the cage and the rat is regularly shocked by trying to drink, the very hungry animal, which cannot eat without drinking, is maximally forced to overcome the hindrance. This is a sensitive test to check the anti-anxiety effect of a compound.
Male CFY rats, weighing 230-250 g, fed with standard food pellets and supplied with tap water ad libitum, were kept under controlled standard environmental conditions (room temperature between 22°-24° C.) in groups of ten for two weeks until used in the experiment. The rats kept in single cages during starvation were deprived of food for 96 hours and supplied with tap water ad libitum before the experiment.
Another aspect of the selection of the animals for the experiment was their visible physical fitness and normal activity after starvation.
A clear Plexiglass box (39×27×12 cm) with a stainless-steel grid floor supplied with a tray for the food pellets and with a drinking tube was used for the experiment. The grid floor, the drinking tube and an electric stimulator (Grass S48) were connected and electric shocks in this circuit were delivered for 10 s duration with 20 s intervals. The parameters of the current (100 V; 25 ohm; 7.5 ms; 5 Hz) were empirically selected using those electric shocks which inhibited the water consumption of the very hungry rats to one third of the control (unpunished) level.
The rats spend one hour in the apparatus after 96 hours of food deprivation.
The drugs were administered parenterally in doses of 0.5 ml/100 g body weight. We refrained from the oral administration of the compounds because of the long term food deprivation.
The Student t-test was used for statistical analysis. The anxiolytic effect was established in punished animals and the sedative effect in unpunished rats.

[1] = test system: pentametazol induced convulsions in rats; assay: Pentametazol induced convulsions; type: in vivo, rat; conditions: for Deaths of pretreated animals / Effect on pentametazol convulsions: 10 mg/kg prior to 120 mg/kg s.c. pentametazol
[2] = test system: electroshock-induced convulsions in rats; assay: Electroshock-induced lethal convulsions; type: in vivo, rat
[3] = test system: picrotoxin induced convulsions in rats; type: in vivo, rat
[4] = Acute toxicity, oral LD50; conditions: rat, in vivo, CFY rats, deaths within 48 h, Litchfield and Wilcoxon
Method: Acute toxicity was assessed on CFY rats (100-160 g). Groups of 10 rats were used. Compound A was administered orally (in volume of 10 ml/kg). The animals starved for 16 h before the experiment. Each dose was administered to a group of animals equally subdivided into males and females. Deaths occurring within 48 h were considered. LD50 values were calculated on the basis of the graphical method of Litchfield and Wilcoxon.

[5] = test system: strychnine induced convulsions in rats; assay: Strychnine induced lethal convulsions; type: in vivo, rat
[6] = chlordiazepoxide 0.05 mg/kg s.c.
[7] = chlordiazepoxide 0.1 mg/kg s.c.
[8] = chlordiazepoxide 0.25 mg/kg s.c.
[9] = chlordiazepoxide 0.5 mg/kg s.c.
[10] = chlordiazepoxide 2.5 mg/kg s.c.
[11] = pretreatment 200 mg/kg, 120 mg/kg s.c. pentametazol
[12] = up to the oral dose of 200 mg/kg, rats

CNC1=Nc2ccc(Cl)cc2C(c2ccccc2)=[N+]([O-])C1 [chlordiazepoxide]
Displacement of 3H-Diazepam from its receptor (benzodiazepine receptors): concentration dependent manner
IC50 value (benzodiazepine receptors): in the same range of concentration
Water consumption (ml) in punished situation (Male CFY rats; Table II: chlordiazepoxide 0.1 mg/kg s.c. + RO 15-1788 5 mg/kg i.p.): 4.1 ± 0.59 mL
Water consumption (ml) in punished situation (Male CFY rats; Table II: chlordiazepoxide 0.1 mg/kg s.c. + RO 15-1788 10 mg/kg i.p.): 3.9 ± 0.43 mL
Water consumption (ml) in punished situation (Male CFY rats; Table II: chlordiazepoxide 0.1 mg/kg s.c. + RO 15-1788 20 mg/kg i.p.): 2.8 ± 0.49 mL
Water consumption (ml) in punished situation (Male CFY rats; Table II: chlordiazepoxide 0.1 mg/kg s.c., RO 15-1788 none): 4.1 ± 0.31 mL
Sedative dose (numerator of ratio) (Male CFY rats): 10
Water consumption (ml) punished situation (Male CFY rats; [6]): 3.5 ± 0.47 mL
Water consumption (ml) without punishment (Male CFY rats; [6]): 5.1 ± 0.56 mL
Water consumption (ml) punished situation (Male CFY rats; [7]): 4.1 ± 0.31 mL
Water consumption (ml) without punishment (Male CFY rats; [7]): 5.8 ± 0.42 mL
Water consumption (ml) punished situation (Male CFY rats; [8]): 3.5 ± 0.62 mL
Water consumption (ml) without punishment (Male CFY rats; [8]): 6.2 ± 0.37 mL
Water consumption (ml) punished situation (Male CFY rats; [9]): 3.1 ± 0.54 mL
Water consumption (ml) without punishment (Male CFY rats; [9]): 7.4 ± 0.77 mL
Water consumption (ml) punished situation (Male CFY rats; chlordiazepoxide 1 mg/kg s.c.): 2.7 ± 0.58 mL
Water consumption (ml) without punishment (Male CFY rats; chlordiazepoxide 1 mg/kg s.c.): 5.4 ± 0.68 mL
Water consumption (ml) punished situation (Male CFY rats; [10]): 4.1 ± 0.39 mL
Water consumption (ml) without punishment (Male CFY rats; [10]): 5.2 ± 0.72 mL
Water consumption (ml) punished situation (Male CFY rats; chlordiazepoxide 5 mg/kg s.c.): 2.5 ± 0.31 mL
Water consumption (ml) without punishment (Male CFY rats; chlordiazepoxide 5 mg/kg s.c.): 5.4 ± 0.62 mL
Water consumption (ml) punished situation (Male CFY rats; chlordiazepoxide 10 mg/kg s.c.): 1.6 ± 0.26 mL
Water consumption (ml) without punishment (Male CFY rats; chlordiazepoxide 10 mg/kg s.c.): 1.8 ± 0.30 mL
Ratio between the sedative and anxiolytic dose (Male CFY rats; conflict test): 100
Anxiolytic effect in presence of RO-15-1788 (selective benzodiazepine receptor antagonist) (Male CFY rats; conflict test): antagonized
Sedative dose range (Male CFY rats; subcutaneous, conflict test, unpunished rats): 10 mg/kg

CCSc1c(N)cnc2cc(Cl)ccc12.Cl [compound A, 3-amino-4-ethylthio-7-chloro-quinoline-hydrochloride]
Influence on the anticonvulsant effect of diazepam (10 mg/kg) ([1]; compound A 200 mg/kg): no influence
Severity of the pentametazol convulsions [1, 11]: did not change
Survival of pretreated animals [1, 11]: none of the pretreated animals survived
Protection against pentametazol induced convulsions [1, 12]: ineffective
Animals died ([2]; 200 mg/kg, electroshock-induced lethal convulsions): 70%
Protection against electroshock-induced convulsions [2, 12]: only slightly effective
Influence on picrotoxin induced lethal convulsions ([3]; pretreated rats, picrotoxin 10 mg/kg s.c.): remained unchanged
Protection against picrotoxin induced convulsions [3, 12]: ineffective
Displacement of 3H-Diazepam from its receptor (benzodiazepine receptors): concentration dependent manner
IC50 value (benzodiazepine receptors): in the same range of concentration
Water consumption (ml) in punished situation (Male CFY rats; Table IV: compound A 5 μg/kg s.c. + RO 15-1788 10 mg/kg i.p.): 3.1 ± 0.69 mL
Water consumption (ml) in punished situation (Male CFY rats; Table IV: compound A 5 μg/kg s.c. + RO 15-1788 20 mg/kg i.p.): 2.4 ± 0.39 mL
Water consumption (ml) in punished situation (Male CFY rats; Table IV: compound A 5 μg/kg s.c., RO 15-1788 none): 4.2 ± 0.37 mL
Sedative dose (numerator of ratio) (Male CFY rats): 2.5
Water consumption (ml) punished situation (Male CFY rats; compound A 0.25 mg/kg s.c.): 3.0 ± 0.27 mL
Water consumption (ml) without punishment (Male CFY rats; compound A 0.25 mg/kg s.c.): 7.7 ± 0.45 mL
Water consumption (ml) punished situation (Male CFY rats; compound A 2.5 mg/kg s.c.): 1.9 ± 0.35 mL
Water consumption (ml) without punishment (Male CFY rats; compound A 2.5 mg/kg s.c.): 4.9 ± 0.91 mL
Water consumption (ml) punished situation (Male CFY rats; compound A 2.5 γ/kg s.c.): 2.2 ± 0.32 mL
Water consumption (ml) without punishment (Male CFY rats; compound A 2.5 γ/kg s.c.): 6.3 ± 0.46 mL
Water consumption (ml) punished situation (Male CFY rats; compound A 5 γ/kg s.c.): 3.8 ± 0.19 mL
Water consumption (ml) without punishment (Male CFY rats; compound A 5 γ/kg s.c.): 6.4 ± 0.33 mL
Water consumption (ml) punished situation (Male CFY rats; compound A 25 γ/kg s.c.): 3.7 ± 0.44 mL
Water consumption (ml) without punishment (Male CFY rats; compound A 25 γ/kg s.c.): 7.9 ± 0.58 mL
Anti-anxiety potency relative to chlordiazepoxide (Male CFY rats; conflict test): about 20 times
Ratio between the sedative and anxiolytic dose (Male CFY rats; conflict test): 500
Anxiolytic effect in presence of RO-15-1788 (selective benzodiazepine receptor antagonist) (Male CFY rats; conflict test): antagonized
LD50 at 48 h [4]: 465 mg/kg
Influence on strychnine induced lethal convulsions ([5]; up to the 200 mg/kg dose level, strychnine 2.5 mg/kg s.c.): not influenced at all
Protection against strychnine induced convulsions [5, 12]: ineffective

CN1C(=O)CN=C(c2ccccc2)c2cc(Cl)ccc21 [diazepam]
Deaths of pretreated animals [1]: none of the pretreated animals died
Effect on pentametazol convulsions [1]: mitigated the convulsions
Rats whose life was saved ([2]; electroshock-induced lethal convulsions, dose not given): 80%
Animals died ([5]; 10 mg/kg, strychnine 2.5 mg/kg s.c.): 80%

CCC1(c2ccccc2)C(=O)NC(=O)NC1=O [phenobarbital Na]
Deaths of pretreated animals [1]: none of the pretreated animals died
Effect on pentametazol convulsions [1]: mitigated the convulsions
Protection against electrogenic convulsions ([2]; 30-50 mg/kg): completely protected
Animals died ([3]; 50 mg/kg, picrotoxin 10 mg/kg s.c.): 80%
Animals died ([5]; 50 mg/kg, strychnine 2.5 mg/kg s.c.): 40%
